According to patent US7897568B2, “Compositions for treatment of cancer” (priority 2006, dated 2011):
Where a SMILES comes first, the peptide text is derived from it. Where no end group is shown, it is not given here.

Assays:
Format in all cases: cell-based
[1] = test system: MCF7-Neo cells; test: Microinjection of ANK peptide then nocodazole, mitotic arrest/apoptosis count; conditions: MCF7-Neo5 cells, ANK peptide microinjected, nocodazole treated; versus uninjected
Method: (§1) ANK peptide interference with SNCG-BubR1 association in vivo was examined in a stable breast cancer cell line MCF7 expressing SNCG (MCF7-SNCG) and a control SNCG negative cell line (MCF7-Neo). […] Significant numbers of cells survived after treatment with the ANK peptide by microinjection in both cell lines. After microinjection, cells were treated with 0.5 μM nocodazole for 24 hours and the fraction of mitotically arrested cells was counted.
(§2) MCF7-SNCG and MCF-Neo were grown to 80% confluence, split with trypsin and seeded on a 22 mm glass coverslip treated with human fibronectin ([…]) into 60 mm diameter dishes containing cell maintenance medium for 24 hours and utilized for the experiments. In initial experiments ANK peptide (5, 10 or 100 μM) was microinjected. In all further experiment to date, ANK peptide (10 μM), together with goat IgG (1 mg/ml) and fluoroscein isothiocyanate (FITC, 5 mg/ml; Molecular Probes) into the MCF7-SNCG or MCF7-Neo cells under a 40× magnification of phase contrast microscope (Carl Zeiss Inc.) using a pressure injection system (Femtojet, Eppendorf). To exclude the possibility that microinjection might affect cell cycle and proliferation, MCF7-Neo and MCF7-SNCG were microinjected with goat IgG as a control. Injections were done at a constant flow setup by varying the injection pressure Pc between 40-70 units. The microscope stage was kept at 37° C. using thermal control device (Tempcontrol-37-2 Digital). Approximately 25-30 cells were microinjected in each experiment (n=3). Cells were quickly incubated to revive. […]
(§3) For the immunofluorescence experiments, cells were fixed in 0.5% buffered paraformaldehyde for 8 minutes at room temperature. […] Cells were scored by identifying cells containing Alexa Fluor 488 excited at 488 nm, and the emission measured at 500-535 nm; DAPI was excited at 345 nm and the emission was measured at 445 nm. […] Mitotic index was determined as described by Gupta et al. (Oncogene 2003 22:7593-7599) and Inaba et al. Breast Cancer Res. Treat. […]

[2] = test system: MCF7-SNCG cells; test: as above; conditions: ANK peptide microinjected, 0.5 μM nocodazole for 24 hours; versus uninjected
Method: as §1, §2, §3

[3] = target: SNCG (Homo sapiens, UniProt O76070); test: Co-localization of EGFP-ANK with SNCG by confocal microscopy; parameters: expressed in transfected cells; host or cells: MCF7-SNCG (MCF7 stably expressing SNCG); conditions: green fluorescent signals in transfected cells
SNCG, sequence (O76070 whole entry, the tested form may be a part): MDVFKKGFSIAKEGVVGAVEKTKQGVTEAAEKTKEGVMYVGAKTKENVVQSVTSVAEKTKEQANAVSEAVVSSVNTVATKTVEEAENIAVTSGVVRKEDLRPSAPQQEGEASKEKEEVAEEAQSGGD
Excerpt: FIGS. 5A through 5D show co-localization, co-immunoprecipitation (co-IP) and GST pull down experiments, using an enhance green fluorescent protein (EGFP)-ANK fusion protein, which confirm that SNCG associates with the ANK peptide in vivo. FIG. 5A is a western blot depicting detection of EGFP-ANK expression in COS7 cells. Lanes 2 and 3 were samples transfected with different clones, cl-4 and cl-8, respectively, of pEGFP-ANK plasmid. In FIG. 5B, MCF7-SNCG cells were transfected with pEGFP-ANK, fixed on a cover slip, permeabilized and probed with anti-SNCG and anti-GFP antibodies to observe co-localization. Fluorescent cells were visualized using an ×100 objective (oil) on an inverted confocal microscope (Leica). FIGS. 5C and 5D are western blots showing association of SNCG and ANK peptide as evidenced by co-IP of SNCG with EGFP-ANK in MCF7-SNCG and MCF7-neo cells. In these experiments, MCF7-SNCG and MCF7-neo cells were transfected with pEGFP-ANK or pEGFP plasmids. […]
To further examine the utility of the ANK peptide as a therapeutic tool against SNCG-caused drug resistance, this peptide was expressed in breast cancer cells. ANK peptide nucleotide sequences were cloned into pEGFP-C2 vector (pEGFP-ANK), and ANK peptide was expressed as a fusion protein with its amino-terminal linked to EGFP protein. […]

Row | intracellular localization relative to SNCG [3] | Compound | number of cells undergoing mitotic arrest/apoptosis [1] | level of mitotically arrested cells [2]
1 |  | CC[C@H](C)[C@H](NC(=O)[C@H](CS)NC(=O)CNC(=O)[C@H](CC(C)C)NC(=O)[C@H](Cc1c[nH]cn1)NC(=O)CNC(=O)[C@H](Cc1c[nH]cn1)NC(=O)[C@H](CCC(N)=O)NC(=O)[C@H](CO)NC(=O)[C@H](C)NC(=O)[C@@H](NC(=O)[C@H](Cc1c[nH]cn1)NC(=O)[C@H](CC(C)C)NC(=O)[C@H](C)NC(=O)[C@H](CO)NC(=O)[C@H](CC(N)=O)NC(=O)CNC(=O)[C@H](CCCCN)NC(C)=O)C(C)C)C(=O)N[C@@H](CCC(N)=O)C(=O)N[C@H](C(=O)N[C@@H](CC(C)C)C(=O)N[C@H](C(=O)N[C@@H](CCCNC(=N)N)C(=O)N[C@@H](Cc1ccc(O)cc1)C(=O)NCC(=O)N[C@@H](C)C(=O)N[C@@H](CC(N)=O)C(=O)N[C@H](C(=O)N[C@H](C(=O)N[C@@H](CCSC)C(=O)N[C@@H](CCC(N)=O)C(=O)N[C@@H](CC(N)=O)C(=O)N[C@@H](Cc1c[nH]cn1)C(=O)NCC(N)=O)[C@@H](C)O)C(C)C)C(C)C)[C@@H](C)O [ANK peptide] (Ac-KGNSALHVASQHGHLGCIQTLVRYGANVTMQNHG-NH2) | not significantly affected | significantly (p<0.05) increased
2 | co-localized with SNCG in the cytoplasm | EGFP-ANK: ANK peptide expressed as a fusion protein with its amino-terminal linked to EGFP protein, approximately 37 kDa ({EGFP}-KGNSALHVASQHGHLGCIQTLVRYGANVTMQNHG) |  | 
